The record followed here is ChEMBL document CHEMBL1125963, “Triply-convergent synthesis of a homochiral 3,3-dimethyl, 15-cyclohexyl prostacyclin analog” (Bioorg Med Chem Lett, 1991).

The species named for test [1] is Homo sapiens. As to the kind of experiment: Concentration required to inhibit collagen-induced platelet aggregation by 50 % (>10 uM); IA means inactive. Type of test: functional.
For test [2], the species on record is Homo sapiens. As to the kind of experiment: Concentration required to inhibit collagen-induced platelet aggregation by 50 %. Type of test: functional.

As usually defined, the IC50 is the midpoint of a concentration-inhibition curve.

Structures are written as SMILES.

In the case of `O=C(O)COc1cccc2c1C[C@H]1C[C@@H](O)[C@H](CC[C@@H](O)C3CCCCC3)[C@H]1C2`, the IC50 entry in test [1] was “Not Active”.

In the case of `CCCCC[C@H](O)/C=C/[C@@H]1[C@H]2C/C(=C/CCCC(=O)O)C[C@H]2C[C@H]1O`, the concentration for half-maximal inhibition (IC50) entry in test [1] is recorded as “Not Active”.

Regarding `CC(C)(C/C=C1\C[C@H]2C[C@@H](O)[C@H](C#C[C@H](O)C3CCCCC3)[C@H]2C1)CC(=O)O`, the IC50 in test [2] is 480 nM.

For `CC(C)(C/C=C1\C[C@H]2C[C@@H](O)[C@H](C#C[C@@H](O)C3CCCCC3)[C@H]2C1)CCO`, the IC50 result in test [1] is given as “Not Active”.

For the compound `CCC#CC[C@H](C)[C@H](O)C#C[C@@H]1[C@H]2C/C(=C/COCC(=O)O)C[C@H]2C[C@H]1O` [CICAPROST], the IC50 entry in test [1] was “Not Active”.
